# Activity calls are given as the source filed them.
# Experiments:
# Vero [1] = test: cells; format: functional; conditions: Chlorocebus sabaeus
# [2] = molecular target: T1, Short transient receptor potential channel 4 (Mus musculus, UniProt Q9QUQ5); test: calcium entry via TRPC4 opening agents – cell-based, HEK293 TRPC4/mu-opioid, Fluo-4 calcium, dose response (AID 434937); format: functional
# T1 sequence (Q9QUQ5 whole entry): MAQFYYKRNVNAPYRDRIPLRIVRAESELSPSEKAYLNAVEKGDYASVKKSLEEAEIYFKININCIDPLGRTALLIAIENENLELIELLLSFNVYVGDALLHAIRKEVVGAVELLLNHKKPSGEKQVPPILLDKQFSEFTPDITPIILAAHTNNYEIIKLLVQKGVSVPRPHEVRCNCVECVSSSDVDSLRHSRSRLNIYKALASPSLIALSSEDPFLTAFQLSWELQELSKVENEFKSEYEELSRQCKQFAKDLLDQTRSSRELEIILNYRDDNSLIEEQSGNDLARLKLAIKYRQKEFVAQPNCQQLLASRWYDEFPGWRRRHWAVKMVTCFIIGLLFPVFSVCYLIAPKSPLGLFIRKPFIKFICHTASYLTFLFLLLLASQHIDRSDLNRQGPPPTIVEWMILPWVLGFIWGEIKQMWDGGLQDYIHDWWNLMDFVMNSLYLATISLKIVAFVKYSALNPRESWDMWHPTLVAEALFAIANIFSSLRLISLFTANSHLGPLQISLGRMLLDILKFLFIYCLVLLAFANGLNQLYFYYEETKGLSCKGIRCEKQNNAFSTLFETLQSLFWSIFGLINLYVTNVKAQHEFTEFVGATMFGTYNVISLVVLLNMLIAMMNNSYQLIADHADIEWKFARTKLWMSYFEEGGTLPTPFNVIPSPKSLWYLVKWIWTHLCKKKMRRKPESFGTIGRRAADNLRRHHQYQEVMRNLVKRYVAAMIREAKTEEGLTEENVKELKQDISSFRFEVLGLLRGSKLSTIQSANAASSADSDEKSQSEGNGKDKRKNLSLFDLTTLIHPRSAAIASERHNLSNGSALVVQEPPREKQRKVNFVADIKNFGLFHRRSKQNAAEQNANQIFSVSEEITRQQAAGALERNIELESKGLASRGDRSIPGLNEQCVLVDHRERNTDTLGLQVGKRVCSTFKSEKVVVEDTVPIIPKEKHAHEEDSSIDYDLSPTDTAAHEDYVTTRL
# [3] = Vero E6 cell cytotoxicity, dose response, cytotoxicity control for non-replicating M. tuberculosis project, secondary assay (AID 492998); format: functional, VeroE6; conditions: Vero C1008
# Vero [4] = test: cells; format: functional, cell-based; conditions: Chlorocebus sabaeus
# [5] = THP-1 cell cytotoxicity, dose response, cytotoxicity control for non-replicating M. tuberculosis project (AID 489025); format: functional
# [6] = fluconazole-exposed Candida albicans growth modulators – fluorescence, retest, confirmation (AID 2467); format: functional, cell-based
# [7] = NIH-3T3 fibroblast cytotoxicity, dose response, cytotoxicity control, cell-based, fluorescence, Alamar Blue, secondary assay (AID 2327); format: functional;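 note: NIH-3T3 mouse fibroblasts cultured with fluconazole at 8 µg/mL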
# cells = format: functional
# [8] = molecular target: NACHT, LRR and PYD domains-containing protein 3 (Homo sapiens, UniProt Q96P20); test: NALP3 inhibitors in yeast, dose response, luminescent (AID 488799); format: functional
# NACHT, LRR and PYD domains-containing protein 3, sequence (Q96P20 whole entry, the tested form may be a part): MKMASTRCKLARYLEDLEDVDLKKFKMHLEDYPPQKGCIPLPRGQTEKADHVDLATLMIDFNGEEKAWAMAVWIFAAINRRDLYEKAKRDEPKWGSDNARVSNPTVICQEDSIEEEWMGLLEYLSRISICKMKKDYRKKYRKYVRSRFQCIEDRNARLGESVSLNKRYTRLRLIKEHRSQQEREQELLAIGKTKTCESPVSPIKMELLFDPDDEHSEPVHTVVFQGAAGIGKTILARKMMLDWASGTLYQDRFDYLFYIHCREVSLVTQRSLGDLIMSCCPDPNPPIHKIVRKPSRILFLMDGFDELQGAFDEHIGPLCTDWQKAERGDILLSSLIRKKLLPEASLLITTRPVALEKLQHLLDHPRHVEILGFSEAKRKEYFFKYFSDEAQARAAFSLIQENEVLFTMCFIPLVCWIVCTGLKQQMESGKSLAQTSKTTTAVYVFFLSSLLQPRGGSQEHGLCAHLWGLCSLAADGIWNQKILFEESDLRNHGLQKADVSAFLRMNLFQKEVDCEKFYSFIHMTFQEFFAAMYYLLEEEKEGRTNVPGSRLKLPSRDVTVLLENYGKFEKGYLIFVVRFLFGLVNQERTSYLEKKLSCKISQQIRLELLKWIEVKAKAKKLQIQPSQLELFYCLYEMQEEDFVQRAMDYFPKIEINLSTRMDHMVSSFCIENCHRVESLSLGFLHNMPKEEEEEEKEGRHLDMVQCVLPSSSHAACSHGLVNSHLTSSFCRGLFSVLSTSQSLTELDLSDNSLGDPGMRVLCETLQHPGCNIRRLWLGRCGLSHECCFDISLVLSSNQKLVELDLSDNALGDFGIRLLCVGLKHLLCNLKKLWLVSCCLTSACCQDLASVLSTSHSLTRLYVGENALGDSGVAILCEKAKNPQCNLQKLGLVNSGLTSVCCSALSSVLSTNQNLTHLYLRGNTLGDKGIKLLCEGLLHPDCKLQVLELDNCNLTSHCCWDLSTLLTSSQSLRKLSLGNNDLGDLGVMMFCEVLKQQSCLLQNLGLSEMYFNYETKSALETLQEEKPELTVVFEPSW
# CAAX prenyl protease 2 = CAAX prenyl protease 2 (Saccharomyces cerevisiae S288c, UniProt Q03530); format: biochemical
# [9] = molecular target: T2, G-protein coupled receptor 35 (Homo sapiens, UniProt Q9HC97); test: SAR analysis of Agonists of the GPR35 Receptor using an Image-Based Assay - Set 4. [Related pubchem assays (depositor defined):AID2013, AID2026]; format: functional
# T2 sequence (Q9HC97 whole entry): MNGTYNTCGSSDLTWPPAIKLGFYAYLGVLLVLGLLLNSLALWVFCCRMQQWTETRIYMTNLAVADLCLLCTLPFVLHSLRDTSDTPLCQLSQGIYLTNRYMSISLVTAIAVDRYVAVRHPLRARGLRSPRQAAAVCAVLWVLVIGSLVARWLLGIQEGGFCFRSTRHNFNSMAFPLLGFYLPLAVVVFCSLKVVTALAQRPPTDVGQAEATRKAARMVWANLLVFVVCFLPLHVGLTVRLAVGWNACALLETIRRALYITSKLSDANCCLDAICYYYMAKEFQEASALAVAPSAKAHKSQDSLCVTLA
# Cannabinoid receptor 1 [10] = molecular target: T3, Cannabinoid receptor 1 (Homo sapiens, UniProt P21554); test: SAR analysis of antagonists of the Cannabinoid Receptor 1 using an Image-Based Assay - Set 4. [Related pubchem assays (depositor defined):AID2013, AID2026]; format: functional
# T3 sequence (P21554 whole entry): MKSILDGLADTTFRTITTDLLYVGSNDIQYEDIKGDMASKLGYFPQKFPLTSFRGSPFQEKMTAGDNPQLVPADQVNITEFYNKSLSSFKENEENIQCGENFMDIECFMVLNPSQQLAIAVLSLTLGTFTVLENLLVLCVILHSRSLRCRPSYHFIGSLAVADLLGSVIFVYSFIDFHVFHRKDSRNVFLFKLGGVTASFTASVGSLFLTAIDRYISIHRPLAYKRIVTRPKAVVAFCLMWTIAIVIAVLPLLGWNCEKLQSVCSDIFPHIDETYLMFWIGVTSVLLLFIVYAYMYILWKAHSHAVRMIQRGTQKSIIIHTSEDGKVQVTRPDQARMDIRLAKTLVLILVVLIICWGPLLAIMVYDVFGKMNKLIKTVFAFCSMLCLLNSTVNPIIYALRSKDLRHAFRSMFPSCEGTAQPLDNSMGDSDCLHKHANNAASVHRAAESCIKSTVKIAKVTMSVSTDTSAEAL
# [11] = molecular target: G-protein coupled receptor 55 (Homo sapiens, UniProt Q9Y2T6); test: SAR Analysis of Selective Antagonists of GPR55 using an Image-Based Assay - Set 4. [Related pubchem assays (depositor defined):AID2013, AID2026]; format: functional;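 note: antagonism of response to 5 µM lysophosphatidylinositol agonist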
# [12] = molecular target: T2, G-protein coupled receptor 35; test: SAR analysis of Antagonists of the GPR35 Receptor using an Image-Based Assay - Set 6. [Related pubchem assays (depositor defined):AID2013, AID2026]; format: functional
# Cannabinoid receptor 1 [13] = molecular target: T3, Cannabinoid receptor 1; test: SAR analysis of agonists of the Cannabinoid Receptor 1 using an Image-Based Assay - Set 4. [Related pubchem assays (depositor defined):AID2013, AID2026]; format: functional
# Cannabinoid receptor 2 [14] = molecular target: T4, Cannabinoid receptor 2 (Homo sapiens, UniProt P34972); test: SAR analysis of antagonists of the Cannabinoid Receptor 2 using an Image-Based Assay - Set 3. [Related pubchem assays (depositor defined):AID2013, AID2026]; format: functional
# T4 sequence (P34972 whole entry): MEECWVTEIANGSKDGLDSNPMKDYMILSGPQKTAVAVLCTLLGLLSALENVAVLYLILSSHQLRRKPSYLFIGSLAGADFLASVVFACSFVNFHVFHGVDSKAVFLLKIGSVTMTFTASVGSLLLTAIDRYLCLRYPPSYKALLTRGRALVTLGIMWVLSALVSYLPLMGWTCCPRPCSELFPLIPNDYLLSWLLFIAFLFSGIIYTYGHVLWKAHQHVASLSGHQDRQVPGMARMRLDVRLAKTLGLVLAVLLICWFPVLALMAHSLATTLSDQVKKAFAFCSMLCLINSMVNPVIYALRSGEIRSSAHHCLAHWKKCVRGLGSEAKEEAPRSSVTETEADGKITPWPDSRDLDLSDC
# Cannabinoid receptor 2 [15] = molecular target: T4, Cannabinoid receptor 2; test: SAR analysis of agonists of the Cannabinoid Receptor 2 using an Image-Based Assay - Set 3. [Related pubchem assays (depositor defined):AID2013, AID2026]; format: functional
# INS1 = test: INS-1E survival protection against cytokine death – cell-based, luminescence, retest, dose response (AID 449756); format: functional; conditions: Rattus norvegicus;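 note: cell death triggered by IL-1 beta plus TNF-alpha plus IFN-gamma mixture; protective hits raise ATP signal compared with cytokine alone wells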
# [16] = molecular target: Neurotensin receptor type 1 (Homo sapiens, UniProt P30989); format: functional;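 note: Image-based confirmatory dose-response assay measuring agonist activity at NTR1; NTR1-expressing U2OS osteosarcoma cells imaged for beta-arrestin GFP spot formation; agonist potency where compounds increase beta-arrestin recruitment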
# Neurotensin receptor type 1, sequence (P30989 whole entry): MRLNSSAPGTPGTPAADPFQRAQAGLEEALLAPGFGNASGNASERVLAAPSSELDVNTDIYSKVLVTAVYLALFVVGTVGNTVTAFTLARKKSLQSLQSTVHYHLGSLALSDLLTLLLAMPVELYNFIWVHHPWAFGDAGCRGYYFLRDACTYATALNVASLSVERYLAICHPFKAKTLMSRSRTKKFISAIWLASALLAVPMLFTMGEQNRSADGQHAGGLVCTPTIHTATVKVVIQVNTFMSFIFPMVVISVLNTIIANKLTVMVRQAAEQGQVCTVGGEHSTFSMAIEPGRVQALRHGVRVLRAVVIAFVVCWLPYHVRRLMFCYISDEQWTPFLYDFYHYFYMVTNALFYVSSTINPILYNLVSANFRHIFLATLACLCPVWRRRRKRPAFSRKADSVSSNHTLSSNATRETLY
# [17] = Luminescence Cell-Based Dose Retest to Confirm Inhibitors of Cancer Stem Cells. [Related pubchem assays (depositor defined):AID2717, AID2721]; format: functional; conditions: Homo sapiens
# [18] = molecular target: T5, Ubiquitin-conjugating enzyme E2 N (Homo sapiens, UniProt P61088); format: functional;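 note: Dose-response confirmation in a TR-FRET assay detecting UBC13-driven polyubiquitin chain formation, inhibition measured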
# T5 sequence (P61088 whole entry): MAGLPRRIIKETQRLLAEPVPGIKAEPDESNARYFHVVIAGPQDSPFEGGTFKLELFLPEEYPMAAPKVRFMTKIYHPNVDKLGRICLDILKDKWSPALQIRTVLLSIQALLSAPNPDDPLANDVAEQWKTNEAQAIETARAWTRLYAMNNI
# [19] = Trypanosoma cruzi growth suppression in host cells – NIH3T3 host cells, beta-gal luminescence, confirmation (AID 2044); format: functional, cell-based;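 note: intracellular parasites grown in NIH/3T3 mouse fibroblasts as host cells; luminescent beta-galactosidase reporter signal from transgenic T. cruzi replicating inside host cells; inhibitors lower the luminescence signal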
# [20] = microbe, parasite or virus in culture; format: functional; conditions: Mycobacterium tuberculosis
# [21] = NIH3T3 cell viability loss – ATP luminescence, mouse fibroblasts, counter-screen, dose response (AID 2010); format: functional, cell-based;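 note: cells exposed to compound for about 90 hours before reading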
# [22] = molecular target: Alkaline phosphatase, placental type (Homo sapiens, UniProt P05187); test: human placental alkaline phosphatase inhibition – biochemical, luminescence, confirmation (AID 1512); format: functional
# [23] = molecular target: T6, Alkaline phosphatase, tissue-nonspecific isozyme (Homo sapiens, UniProt P05186); test: potency against alkaline phosphatase TNAP – biochemical, luminescent, dose response, SAR follow-up (AID 1056)
# T6 sequence (P05186 whole entry): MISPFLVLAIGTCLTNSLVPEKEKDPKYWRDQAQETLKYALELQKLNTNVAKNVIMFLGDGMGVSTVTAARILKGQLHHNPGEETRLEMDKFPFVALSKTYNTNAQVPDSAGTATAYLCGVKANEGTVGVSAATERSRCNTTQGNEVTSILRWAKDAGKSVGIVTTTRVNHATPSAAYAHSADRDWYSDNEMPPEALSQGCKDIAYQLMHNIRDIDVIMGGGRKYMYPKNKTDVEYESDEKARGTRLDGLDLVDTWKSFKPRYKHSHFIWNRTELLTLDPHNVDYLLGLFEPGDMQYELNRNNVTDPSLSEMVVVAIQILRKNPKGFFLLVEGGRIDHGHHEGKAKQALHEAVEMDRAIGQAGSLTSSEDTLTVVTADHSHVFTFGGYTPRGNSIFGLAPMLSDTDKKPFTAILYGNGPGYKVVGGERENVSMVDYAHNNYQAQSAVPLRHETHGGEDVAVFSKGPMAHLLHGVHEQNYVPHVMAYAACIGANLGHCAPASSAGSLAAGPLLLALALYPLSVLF
# [24] = molecular target: Glyceraldehyde-3-phosphate dehydrogenase (Homo sapiens, UniProt P04406)
# [25] = molecular target: Voltage-dependent T-type calcium channel subunit alpha-1H (Homo sapiens, UniProt O95180); format: functional;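 note: channel activity triggered by adding a high calcium stimulation buffer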
# Voltage-dependent T-type calcium channel subunit alpha-1H, sequence (O95180 whole entry): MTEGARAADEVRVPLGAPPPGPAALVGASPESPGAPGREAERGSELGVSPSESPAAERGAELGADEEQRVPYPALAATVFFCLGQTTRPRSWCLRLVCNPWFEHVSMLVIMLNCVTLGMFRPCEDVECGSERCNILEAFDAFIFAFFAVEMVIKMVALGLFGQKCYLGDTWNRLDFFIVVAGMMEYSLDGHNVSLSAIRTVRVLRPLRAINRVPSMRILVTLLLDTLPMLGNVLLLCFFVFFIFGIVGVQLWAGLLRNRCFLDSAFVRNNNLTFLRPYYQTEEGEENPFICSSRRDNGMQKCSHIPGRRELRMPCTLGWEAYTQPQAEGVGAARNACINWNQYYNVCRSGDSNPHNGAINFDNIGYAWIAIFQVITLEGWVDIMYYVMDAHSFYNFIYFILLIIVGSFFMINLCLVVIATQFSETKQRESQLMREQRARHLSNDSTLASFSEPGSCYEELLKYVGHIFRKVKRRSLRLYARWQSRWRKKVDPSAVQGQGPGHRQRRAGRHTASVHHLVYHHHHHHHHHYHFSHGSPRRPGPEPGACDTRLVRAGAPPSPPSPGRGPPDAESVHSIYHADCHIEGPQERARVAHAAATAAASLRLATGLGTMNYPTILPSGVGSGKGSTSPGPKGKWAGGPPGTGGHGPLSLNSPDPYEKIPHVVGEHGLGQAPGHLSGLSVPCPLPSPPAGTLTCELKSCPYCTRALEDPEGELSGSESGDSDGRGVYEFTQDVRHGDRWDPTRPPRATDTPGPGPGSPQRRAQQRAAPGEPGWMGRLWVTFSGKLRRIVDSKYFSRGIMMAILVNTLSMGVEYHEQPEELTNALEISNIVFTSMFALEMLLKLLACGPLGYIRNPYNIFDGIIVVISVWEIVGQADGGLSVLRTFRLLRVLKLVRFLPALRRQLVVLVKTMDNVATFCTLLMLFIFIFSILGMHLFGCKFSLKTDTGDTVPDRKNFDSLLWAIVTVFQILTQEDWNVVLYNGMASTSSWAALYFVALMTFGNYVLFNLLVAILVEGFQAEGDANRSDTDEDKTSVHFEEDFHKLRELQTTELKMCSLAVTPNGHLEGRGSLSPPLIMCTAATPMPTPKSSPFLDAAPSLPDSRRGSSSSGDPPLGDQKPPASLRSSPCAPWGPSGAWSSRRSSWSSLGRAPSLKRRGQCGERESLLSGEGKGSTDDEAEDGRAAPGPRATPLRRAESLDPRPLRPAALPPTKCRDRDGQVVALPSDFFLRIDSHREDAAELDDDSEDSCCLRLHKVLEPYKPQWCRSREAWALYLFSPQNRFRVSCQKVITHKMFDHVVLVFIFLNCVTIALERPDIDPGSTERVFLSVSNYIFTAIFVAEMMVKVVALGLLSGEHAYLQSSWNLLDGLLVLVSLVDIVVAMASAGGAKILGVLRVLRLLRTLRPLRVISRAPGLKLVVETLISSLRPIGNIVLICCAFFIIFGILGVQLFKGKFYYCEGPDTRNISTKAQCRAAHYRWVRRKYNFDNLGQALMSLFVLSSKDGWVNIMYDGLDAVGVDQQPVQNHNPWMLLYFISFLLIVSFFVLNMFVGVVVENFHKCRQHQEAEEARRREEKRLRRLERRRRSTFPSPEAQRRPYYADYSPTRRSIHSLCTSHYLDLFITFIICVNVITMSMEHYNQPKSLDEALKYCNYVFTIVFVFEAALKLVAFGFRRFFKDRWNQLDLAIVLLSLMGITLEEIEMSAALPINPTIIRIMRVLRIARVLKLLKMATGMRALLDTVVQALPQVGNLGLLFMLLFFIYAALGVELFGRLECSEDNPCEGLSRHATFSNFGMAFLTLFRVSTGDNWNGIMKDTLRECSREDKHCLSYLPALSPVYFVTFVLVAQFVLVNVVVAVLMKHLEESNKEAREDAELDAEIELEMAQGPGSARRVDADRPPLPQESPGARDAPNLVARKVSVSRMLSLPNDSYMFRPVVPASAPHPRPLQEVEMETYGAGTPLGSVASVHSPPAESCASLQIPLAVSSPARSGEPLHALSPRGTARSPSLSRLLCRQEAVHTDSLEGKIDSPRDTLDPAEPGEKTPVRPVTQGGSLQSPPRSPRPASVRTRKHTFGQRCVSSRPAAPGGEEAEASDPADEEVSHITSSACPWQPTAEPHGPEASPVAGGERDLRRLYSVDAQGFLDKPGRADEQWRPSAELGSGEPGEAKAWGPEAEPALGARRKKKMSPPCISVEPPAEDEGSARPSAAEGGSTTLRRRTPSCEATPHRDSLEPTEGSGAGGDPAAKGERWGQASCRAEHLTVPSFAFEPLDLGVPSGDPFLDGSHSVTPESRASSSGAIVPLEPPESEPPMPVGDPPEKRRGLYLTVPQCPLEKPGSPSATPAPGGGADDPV
# [26] = toxicity toward cultured mammalian cells – cell-based, plate reader, cherry-pick samples, cytotoxicity control, dose response (AID 504397); format: functional
structure (smiles),measurement,setting,value
CCCOc1ccc(C(=O)NNC(=S)NC(=O)c2cccs2)cc1,CC50,Vero [1],15.6 µM (active)
same,EC50,[2],3.76 µM (active)
same,CC50,[3],6.29 µM (active)
same,IC50,Vero [4],> 25 µM (active)
same,CC50,[5],5.22 µM (active)
same,EC50,[6],0.391 µM (active)
same,EC50,[7],18.5 µM (active)
same,IC50,cells,0.5 µM (active)
same,IC50,[8],8.96 µM (active)
CCOC(=O)c1ccc2c(c1)nc(COc1ccc(OC)cc1)n2CC,IC50,[8],> 100 µM (inactive)
O=C(O)CNc1ccccc1C(=O)O,AC50,CAAX prenyl protease 2,11.3 µM (active)
O=C(N1CCC(n2nc(-c3ccccc3)oc2=O)CC1)C1(c2ccccc2)CC1,EC50,[9],> 32 µM (inactive)
same,IC50,Cannabinoid receptor 1 [10],8.64 µM (active)
same,IC50,[11],17.4 µM (inactive)
same,IC50,[12],> 32 µM (inactive)
same,EC50,Cannabinoid receptor 1 [13],> 32 µM (inactive)
same,IC50,Cannabinoid receptor 2 [14],> 32 µM (inactive)
same,EC50,Cannabinoid receptor 2 [15],> 32 µM (inactive)
Cc1cccc(OCc2n(C)c3ccccc3[n+]2CC(=O)OC2CC(C)CCC2C(C)C)c1 (configuration not stated),AC50,INS1,3.61 µM (active)
same,EC50,[16],8.85 µM (active)
same,AC50,[17],3.49 µM (active)
same,EC50,[6],0.736 µM (active)
same,IC50,[18],> 20 µM (inactive)
same,EC50,[19],0.565 µM (active)
same,EC50,[7],11.2 µM (inconclusive)
same,CC50,[20],18.8 µM (active)
same,EC50,[21],> 60 µM (not active)
COc1cc(CCc2nc(N)nn2-c2ccccc2)cc(OC)c1OC,IC50,[22],> 100 µM (inactive)
same,IC50,[23],> 100 µM (inactive)
same,IC50,[24],> 100 µM (not active)
O=C(CN(C1CCCCC1)C1CCCCC1)N1CCc2ccccc2C1,EC50,[25],4.36 µM (active)
same,AC50,[26],204 µM (active)

# Reference: ChEMBL document CHEMBL1201862, “PubChem BioAssay data set” (2004)
